From patent US10294202B2, “Pyrrolidinones as herbicides” (FMC Corporation, priority 2013, dated 2019)

Legend:
soybean = assay: Test C pre-/postemergence herbicide test; assay type: in vivo, Glycine max
Outline: (§1)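 Pre- and postemergence greenhouse screen. Preemergence treatment went onto freshly planted seeds in loam–sand soil; postemergence treatment went onto plants 2 to 18 cm tall at the 1- to 4-leaf stage in sphagnum peat/vermiculite medium. Scoring at 13 to 15 days used a 0–100 control scale.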

oat, wild = assay: Test C pre-/postemergence herbicide test; assay type: in vivo, Avena fatua
From the text: (§2) Seeds of plant species selected from blackgrass (Alopecurus myosuroides), ryegrass, Italian (Italian ryegrass, Lolium multiflorum), wheat (winter wheat, Triticum aestivum), galium (catchweed bedstraw, Galium aparine), corn (Zea mays), crabgrass, large (large crabgrass, Digitaria sanguinalis), foxtail, giant (giant foxtail, Setaria faberii), johnsongrass (Sorghum halepense), lambsquarters (Chenopodium album), morningglory (Ipomoea coccinea), nutsedge, yellow (yellow nutsedge, Cyperus esculentus), pigweed (Amaranthus retroflexus), ragweed (common ragweed, Ambrosia elatior), soybean (Glycine max), barnyardgrass (Echinochloa crus-galli), oilseed rape (Brassica napus), waterhemp (common waterhemp, Amaranthus rudis), kochia (Kochia scoparia), oat, wild (wild oat, Avena fatua), surinam grass (Brachiaria decumbens), foxtail, green (green foxtail, Setaria viridis), goosegrass (Eleusine indica), bromegrass, downy (downy bromegrass, Bromus tectorum), nightshade (eastern black nightshade, Solanum ptycanthum), cocklebur (common cocklebur, Xanthium strumarium), cupgrass, woolly (woolly cupgrass, Eriochloa villosa), bermudagrass (Cynodon dactylon), sunflower, (common oilseed sunflower, Helianthus annuus), Russian thistle (Salsola kali) and velvetleaf (Abutilon theophrasti) were planted into a blend of loam soil and sand and treated preemergence with test chemicals formulated in a non-phytotoxic solvent mixture which included a surfactant. At the same time, plants selected from these crop and weed species and also barley (winter barley, Hordeum vulgare), […]), chickweed (common chickweed, Stellaria media), deadnettle (henbit deadnettle, Lamium amplexicaule), and canarygrass (littleseed canarygrass, Phalaris minor) were planted in pots containing Redi-Earth® planting medium (Scotts Company, 14111 Scottslawn Road, Marysville, Ohio 43041) comprising spaghnum peat moss, vermiculite, wetting agent and starter nutrients and treated with postemergence applications of test chemicals formulated in the same manner. Plants ranged in height from 2 to 18 cm (1- to 4-leaf stage) for postemergence treatments. Treated plants and controls were maintained in a greenhouse for 13 to 15 days, after which time all species were compared to controls and visually evaluated. Plant response ratings, summarized in Table C, are based on a scale of 0 to 100 where 0 is no effect and 100 is complete control. A dash (-) response means no test result.

pigweed = assay: Test C pre-/postemergence herbicide test; assay type: in vivo, Amaranthus retroflexus
Outline: as §1

morningglory = assay: Test C pre-/postemergence herbicide test; assay type: in vivo, Ipomoea coccinea
Outline: as §1

wheat (winter wheat) = assay: Test C pre-/postemergence herbicide test; assay type: in vivo, Triticum aestivum
From the text: as §2

corn = assay: Test C pre-/postemergence herbicide test; assay type: in vivo, Zea mays
From the text: as §2

velvetleaf = assay: Test C pre-/postemergence herbicide test; assay type: in vivo, Abutilon theophrasti
From the text: as §2

ducksalad = assay: Test B flooded paddy test; assay type: in vivo, Heteranthera limosa; conditions: Flood, scale of 0 to 100 where 0 is no effect and 100 is complete control
Outline: (§3)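 Visual ratings from 0, meaning no effect, up to 100, meaning complete control, were made by comparison with untreated controls 13 to 15 days after treatment. Test compounds went straight into floodwater standing 3 cm over the soil of pots holding 2-leaf seedlings.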

waterhemp = assay: Test C pre-/postemergence herbicide test; assay type: in vivo, Amaranthus rudis; conditions: Preemergence; for Plant response rating, Waterhemp: 125 g ai/ha
From the text: as §2

rice = assay: Test B flooded paddy test; assay type: in vivo, Oryza sativa; conditions: Flood, scale of 0 to 100 where 0 is no effect and 100 is complete control
Outline: as §3

oilseed rape = assay: Test C pre-/postemergence herbicide test; assay type: in vivo, Brassica napus; conditions: Preemergence; for Plant response rating, Oilseed Rape: 125 g ai/ha; for Plant response rating (scale of 0 to 100), Oilseed Rape: 250 g ai/ha
Outline: as §1

barnyardgrass = assay: Test C pre-/postemergence herbicide test; assay type: in vivo, Echinochloa crus-galli; conditions: Preemergence; for Plant response rating (scale of 0 to 100; 0 is no effect, 100 is complete control), Barnyardgrass: 250 g ai/ha
Outline: as §1

[1] = Preemergence, 62 g ai/ha, scale 0 to 100
[2] = Preemergence, 125 g ai/ha, scale 0 to 100 (0 no effect, 100 complete control)
[3] = Preemergence, 31 g ai/ha, scale 0 to 100 (0 no effect, 100 complete control)
[4] = Preemergence, 250 g ai/ha, scale 0 to 100 (0 no effect, 100 complete control)
[5] = Postemergence, 31 g ai/ha, scale 0 (no effect) to 100 (complete control)
[6] = Postemergence, 62 g ai/ha, scale 0 to 100 (0 no effect, 100 complete control)
[7] = Postemergence, 125 g ai/ha, scale 0 to 100 (0 no effect, 100 complete control)
[8] = Postemergence, 250 g ai/ha, scale 0 to 100 (0 no effect, 100 complete control)
[9] = 62 g ai/ha, scale 0 to 100 (0 no effect, 100 complete control)
[10] = Preemergence, 62 g ai/ha, scale 0 to 100 (0 no effect, 100 complete control)
[11] = Preemergence, 125 g ai/ha, scale 0 to 100
[12] = 31 g ai/ha, scale 0 to 100, 0 is no effect and 100 is complete control
[13] = Preemergence, 31 g ai/ha, scale 0 to 100, 0 is no effect and 100 is complete control
[14] = 125 g ai/ha, scale 0 to 100 (0 no effect, 100 complete control)
[15] = scale 0 to 100 (0 no effect, 100 complete control)

O=C1NCCC1C(=O)N(c1ccc(F)c(F)c1)c1ccccc1F (centres unmarked) [Compound 5, N-(3,4-difluorophenyl)-N-(2-fluorophenyl)-2-oxo-3-pyrrolidinecarboxamide]
5: Plant response rating, Wheat (wheat (winter wheat); [2])
0: Plant response rating, Soybean (soybean; [1]) | Plant response rating, Soybean (soybean; [2]) | Plant response rating, Oat, Wild (oat, wild; [1]) | Plant response rating, Oat, Wild (oat, wild; [2]) | Plant response rating, Pigweed (pigweed; [1]) | Plant response rating, Pigweed (pigweed; [2]) | Plant response rating, Morningglory (morningglory; [1]) | Plant response rating, Morningglory (morningglory; [2]) | Plant response rating, Wheat (wheat (winter wheat); [1]) | Plant response rating, Corn (corn; [1]) | Plant response rating, Corn (corn; [2]) | Corn plant response rating (corn; [3]) | Plant response rating, Corn (corn; [4]) | Plant response rating, Velvetleaf (velvetleaf; [1]) | Plant response rating, Velvetleaf (velvetleaf; [2])

O=C1NCC(c2ccc(F)c(F)c2)C1C(=O)Nc1cccc(F)c1F (centres unmarked) [Compound 17, N-(2,3-difluorophenyl)-4-(3,4-difluorophenyl)-2-oxo-3-pyrrolidinecarboxamide]
50: Plant response rating, Pigweed (pigweed; [2])
30: Plant response rating, Corn (corn; [2])
0: Plant response rating, Soybean (soybean; [5]) | Plant response rating, Soybean (soybean; [6]) | Plant response rating, Soybean (soybean; [7]) | Plant response rating, Soybean (soybean; [8]) | Plant response rating, Soybean (soybean; [1]) | Plant response rating, Soybean (soybean; [2]) | Plant response rating, Oat, Wild (oat, wild; [5]) | Plant response rating, Oat, Wild (oat, wild; [6]) | Plant response rating, Oat, Wild (oat, wild; [7]) | Plant response rating, Oat, Wild (oat, wild; [8]) | Plant response rating, Oat, Wild (oat, wild; [1]) | Plant response rating, Oat, Wild (oat, wild; [2]) | Plant response rating, Pigweed (pigweed; [5]) | Plant response rating, Pigweed (pigweed; [6]) | Plant response rating, Pigweed (pigweed; [7]) | Plant response rating, Pigweed (pigweed; [8]) | Plant response rating, Pigweed (pigweed; [1]) | Plant response rating, Morningglory (morningglory; [5]) | Plant response rating, Morningglory (morningglory; [6]) | Plant response rating, Morningglory (morningglory; [7]) | Plant response rating, Morningglory (morningglory; [8]) | Plant response rating, Morningglory (morningglory; [1]) | Plant response rating, Wheat (wheat (winter wheat); [5]) | Plant response rating, Wheat (wheat (winter wheat); [6]) | Plant response rating, Wheat (wheat (winter wheat); [7]) | Plant response rating, Wheat (wheat (winter wheat); [8]) | Plant response rating, Wheat (wheat (winter wheat); [1]) | Plant response rating, Wheat (wheat (winter wheat); [2]) | Plant response rating, Corn (corn; [5]) | Plant response rating, Corn (corn; [6]) | Plant response rating, Corn (corn; [7]) | Plant response rating, Corn (corn; [8]) | Plant response rating, Corn (corn; [1]) | Corn plant response rating (corn; [3]) | Plant response rating, Velvetleaf (velvetleaf; [5]) | Plant response rating, Velvetleaf (velvetleaf; [6]) | Plant response rating, Velvetleaf (velvetleaf; [7]) | Plant response rating, Velvetleaf (velvetleaf; [8]) | Plant response rating, Velvetleaf (velvetleaf; [1]) | Plant response rating, Velvetleaf (velvetleaf; [2])
70: Plant response rating, Corn (corn; [4])

O=C1NCC(c2cccc(C(F)(F)F)c2)C1C(=O)Nc1ccc(F)c(F)c1F (centres unmarked) [Compound 345]
95: Barnyardgrass plant response rating (barnyardgrass; [9]) | Plant response rating, Barnyardgrass (barnyardgrass; [14]) | Plant response rating (scale of 0 to 100; 0 is no effect, 100 is complete control), Barnyardgrass (barnyardgrass)
0: Soybean plant response rating (soybean; [10]) | Plant response rating, Rice (rice; 1000 g ai/ha) | Morningglory plant response rating (morningglory; [10]) | Plant response rating, Morningglory (morningglory; [11]) | Velvetleaf plant response rating (velvetleaf; [10])
30: Plant response rating, Ducksalad (ducksalad; 1000 g ai/ha) | Pigweed plant response rating (pigweed; [13]) | Pigweed plant response rating (pigweed; [10])
40: Plant response rating, Waterhemp (waterhemp; scale 0 to 100) | Corn plant response rating (corn; [13])
80: Barnyardgrass plant response rating (barnyardgrass; [12])
55: Oilseed Rape plant response rating (oilseed rape; [9])
25: Morningglory plant response rating (morningglory; [13]) | Plant response rating, Velvetleaf (velvetleaf; [11])
65: Plant response rating, Pigweed (pigweed; [11]) | Plant response rating, Corn (corn; [11])
85: Plant response rating, Oilseed Rape (oilseed rape; scale 0 to 100) | Plant response rating (scale of 0 to 100), Oilseed Rape (oilseed rape) | Plant response rating (scale of 0 to 100), Corn (corn; Preemergence, 250 g ai/ha)
10: Wheat plant response rating (wheat (winter wheat); [10])
5: Waterhemp plant response rating (waterhemp; [9]) | Plant response rating, Soybean (soybean; [11])
70: Plant response rating, Wheat (wheat (winter wheat); [11])
50: Oilseed Rape plant response rating (oilseed rape; [12])
35: Plant response rating (scale of 0 to 100), Morningglory (morningglory; Preemergence, 250 g ai/ha) | Corn plant response rating (corn; [10])

CC(C)c1cccc(C2CNC(=O)C2C(=O)Nc2ccccc2F)c1 (centres unmarked) [Compound 318]
60: Plant response rating (scale of 0 to 100), Corn (corn; Preemergence, 250 g ai/ha)
80: Barnyardgrass plant response rating (barnyardgrass; [12])
40: Morningglory plant response rating (morningglory; [10]) | Plant response rating (scale of 0 to 100), Morningglory (morningglory; Preemergence, 250 g ai/ha)
100: Plant response rating, Ducksalad (ducksalad; 500 g ai/ha)
0: Soybean plant response rating (soybean; [10]) | Plant response rating, Soybean (soybean; [11]) | Oilseed Rape plant response rating (oilseed rape; [12]) | Oilseed Rape plant response rating (oilseed rape; [9]) | Pigweed plant response rating (pigweed; [13]) | Wheat plant response rating (wheat (winter wheat); [10]) | Corn plant response rating (corn; [13]) | Corn plant response rating (corn; [10])
15: Plant response rating, Rice (rice; 500 g ai/ha)
10: Plant response rating, Waterhemp (waterhemp; scale 0 to 100) | Plant response rating, Corn (corn; [11]) | Velvetleaf plant response rating (velvetleaf; [10])
30: Waterhemp plant response rating (waterhemp; [9]) | Morningglory plant response rating (morningglory; [13]) | Plant response rating, Morningglory (morningglory; [11])
5: Plant response rating, Oilseed Rape (oilseed rape; scale 0 to 100) | Plant response rating (scale of 0 to 100), Oilseed Rape (oilseed rape) | Plant response rating, Wheat (wheat (winter wheat); [11])
20: Pigweed plant response rating (pigweed; [10]) | Plant response rating, Pigweed (pigweed; [11])
95: Barnyardgrass plant response rating (barnyardgrass; [9]) | Plant response rating, Barnyardgrass (barnyardgrass; [14]) | Plant response rating (scale of 0 to 100; 0 is no effect, 100 is complete control), Barnyardgrass (barnyardgrass)
25: Plant response rating, Velvetleaf (velvetleaf; [11])

O=C1NCC(c2ccc(Cl)cc2)C1C(=O)Nc1cccc(F)c1F (centres unmarked) [Compound 218]
30: Waterhemp plant response rating (waterhemp; [12])
85: Plant response rating (scale of 0 to 100), Pigweed (pigweed; Preemergence, 250 g ai/ha)
15: Plant response rating, Velvetleaf (velvetleaf; [2])
75: Waterhemp plant response rating (waterhemp; [9]) | Plant response rating, Pigweed (pigweed; [2])
70: Plant response rating (scale of 0 to 100), Oilseed Rape (oilseed rape)
40: Plant response rating, Soybean (soybean; [2]) | Plant response rating (scale of 0 to 100), Velvetleaf (velvetleaf; Preemergence, 250 g ai/ha)
95: Plant response rating, Barnyardgrass (barnyardgrass; [14]) | Plant response rating (scale of 0 to 100; 0 is no effect, 100 is complete control), Barnyardgrass (barnyardgrass)
90: Plant response rating, Waterhemp (waterhemp; [15]) | Plant response rating (scale of 0 to 100), Waterhemp (waterhemp; 250 g ai/ha) | Plant response rating, Barnyardgrass (barnyardgrass; 62 g ai/ha, scale 0 to 100)
20: Plant response rating (scale of 0 to 100), Soybean (soybean; Preemergence, 250 g ai/ha) | Plant response rating, Oilseed Rape (oilseed rape; [15]) | Plant response rating (scale of 0 to 100), Morningglory (morningglory; Preemergence, 250 g ai/ha)
0: Soybean plant response rating (soybean; [13]) | Plant response rating, Rice (rice; 500 g ai/ha) | Oilseed Rape plant response rating (oilseed rape; [12]) | Morningglory plant response rating (morningglory; [13]) | Morningglory plant response rating (morningglory; [10]) | Wheat plant response rating (wheat (winter wheat); [13]) | Wheat plant response rating (wheat (winter wheat); [10]) | Plant response rating, Wheat (wheat (winter wheat); [2]) | Corn plant response rating (corn; [13]) | Corn plant response rating (corn; [10]) | Plant response rating, Corn (corn; [2]) | Plant response rating (scale of 0 to 100), Corn (corn; Preemergence, 250 g ai/ha) | Velvetleaf plant response rating (velvetleaf; [13]) | Velvetleaf plant response rating (velvetleaf; [10])
60: Oilseed Rape plant response rating (oilseed rape; [9])
5: Soybean plant response rating (soybean; [10]) | Pigweed plant response rating (pigweed; [13])
25: Plant response rating, Morningglory (morningglory; [2])
100: Plant response rating, Ducksalad (ducksalad; 500 g ai/ha)
10: Plant response rating (scale of 0 to 100), Wheat (wheat (winter wheat); Preemergence, 250 g ai/ha)
80: Barnyardgrass plant response rating (barnyardgrass; [12])
50: Pigweed plant response rating (pigweed; [10])
